Common to all, as to format: in vivo
The subject of series [1] is Echinochloa oryzacola Vasing. Put plainly: Test Example 1: herbicidal activity, application before weed generation in submerged conditions (symbol A). As to conditions: application herbicide amount 320 g/ha. In outline:
(§1)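 Compound emulsion was diluted to a set herbicide amount and applied to the water surface on the sowing day, into submerged (4 cm) alluvial-soil pots sown with mixed weed seeds and transplanted 2.5-leaf rice. Pots were held in a 25–30 °C greenhouse, and weeds were scored 0–5 by herbicidal ratio after 3 weeks.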

Series [2] concerns Echinochloa oryzacola Vasing. The experiment in a line: Test Example 2: herbicidal activity, application during weed generation in submerged conditions (symbol A). The settings on record: Table 23; application herbicide amount 320 g/ha; grade 0-5 by criteria of Test Example 1. The gist of the method:
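Submerged alluvial soil (4 cm) sown with mixed seed; greenhouse 25–30° C. 1–2 leaf: diluted emulsion onto water surface, preset dose. Visual score, 3 wk.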

The next series has as its system rapeseed. The experiment in a line: Test Example 5: effect on crop by foliage application, plastic box (symbol g). The settings on record: 320 g/ha, 3 weeks after application. In outline: (§2)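 In a plastic box 7 cm deep filled with sterilized diluvial soil, seeds of crops and weeds such as Digitaria ciliaris, Avena fatua and Amaranthus retroflexus are sown in spots and covered with about 1.5 cm of soil before greenhouse growth at 25–30° C.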

The next series relates to Veronica persica. The experiment in a line: Test Example 5: herbicidal effect by foliage application, plastic box (symbol R). The settings on record: 320 g/ha, 3 weeks after application. In outline: (§3)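 Visual herbicidal score, taken three weeks post-application, of seedlings sprayed on the foliage with water-diluted emulsion at a predetermined amount; plants were 14 days old, greenhouse-raised at 25° C. to 30° C.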

The next series concerns Avena fatua. Put plainly: Test Example 5: herbicidal effect by foliage application, plastic box (symbol I). The settings on record: 320 g/ha, 3 weeks after application. In outline: as §3
A further series concerns Lolium multiflorum Lam. The experiment in a line: Test Example 5: herbicidal effect by foliage application, plastic box (symbol K). As to conditions: 320 g/ha, 3 weeks after application. In outline: as §3
The test system of another series is corn. The experiment in a line: Test Example 5: effect on crop by foliage application, plastic box (symbol c). As to conditions: 320 g/ha, 3 weeks after application. In outline:
as §2

The next series deals with Digitaria ciliaris. The experiment in a line: Test Example 4: herbicidal effect by soil treatment (symbol F). As to conditions: application herbicide amount 320 g/ha. In outline: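 Seeds were sown in sterilized diluvial soil, covered with about 1.5 cm of soil, and the soil surface was sprayed with a water-diluted emulsion of the compound at a predetermined rate. Plants grew in a greenhouse at 25° C. to 30° C.; effects were scored visually 3 weeks after application.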

A further series concerns Monochoria vaginalis. The experiment in a line: Test Example 1: herbicidal activity, application before weed generation in submerged conditions (symbol C). The settings on record: application herbicide amount 320 g/ha. The gist of the method: as §1
The test system of another series is beet. Put plainly: Test Example 5: effect on crop by foliage application, plastic box (symbol f). As to conditions: 320 g/ha, 3 weeks after application. In outline:
as §2

Here are results for 3 compounds from patent publication US11000033B2, “Ketone or oxime compound, and herbicide” (NISSAN CHEMICAL CORPORATION, priority 2014, dated 2021).

With `CC(CC1CC(O)=C(c2c(C)cc(C)cc2C)C1=O)=NOCc1ccccn1` (stereo not drawn) [1-022], the “Herbicidal effect grade, A: Echinochloa oryzacola Vasing.” value is 5 (Herbicidal ratio of 90% or more (almost completely withered)) in series [1]; 4 (Herbicidal ratio of 70% or higher and lower than 90%) in [2]. In addition, the “g: rapeseed, effect on crop grade” value in the series on rapeseed was 4 (Herbicidal ratio of 70% or higher and lower than 90%). Also, the “R: Veronica persica, herbicidal effect grade” value in the series on Veronica persica is 3 (Herbicidal ratio of 40% or higher and lower than 70%). In addition, in the series on Avena fatua, the “I: Avena fatua, herbicidal effect grade” value is reported as 5 (Herbicidal ratio of 90% or more (almost completely withered)). Moreover, the “K: Lolium multiflorum Lam., herbicidal effect grade” value in the series on Lolium multiflorum Lam. was 5 (Herbicidal ratio of 90% or more (almost completely withered)). Moreover, in the series on corn, the “c: corn, effect on crop grade” value is 3 (Herbicidal ratio of 40% or higher and lower than 70%). Also, the “F (Digitaria ciliaris) herbicidal effect grade” value in the series on Digitaria ciliaris is 5 (Herbicidal ratio of 90% or more (almost completely withered)). Moreover, the “Herbicidal effect grade, C: Monochoria vaginalis” value (“Herbicidal effect grade, C” below) with Monochoria vaginalis is 2 (Herbicidal ratio of 20% or higher and lower than 40%). The “f: beet, effect on crop grade” value in the series on beet is on record as 0 (Herbicidal ratio of 5% or lower (almost no effect)).

As for `COC(=O)CON=C(C)CC1CC(O)=C(c2c(C)cc(C)cc2C)C1=O` (stereo not drawn) [1-023], the “Herbicidal effect grade, A: Echinochloa oryzacola Vasing.” value is 4 (Herbicidal ratio of 70% or higher and lower than 90%) in series [1]; 4 (Herbicidal ratio of 70% or higher and lower than 90%) in series [2]. Also, the “g: rapeseed, effect on crop grade” value in the series on rapeseed is 2 (Herbicidal ratio of 20% or higher and lower than 40%). Besides, the “R: Veronica persica, herbicidal effect grade” value in the series on Veronica persica was 0 (Herbicidal ratio of 5% or lower (almost no effect)). In the series on Avena fatua, the “I: Avena fatua, herbicidal effect grade” value was 1 (Herbicidal ratio of 5% or higher and lower than 20%). Also, the “K: Lolium multiflorum Lam., herbicidal effect grade” value in the series with Lolium multiflorum Lam. is 4 (Herbicidal ratio of 70% or higher and lower than 90%). Besides, in the series on corn, the “c: corn, effect on crop grade” value is 1 (Herbicidal ratio of 5% or higher and lower than 20%). Also, in the series on Digitaria ciliaris, the “F (Digitaria ciliaris) herbicidal effect grade” value was 4 (Herbicidal ratio of 70% or higher and lower than 90%). The “Herbicidal effect grade, C” value in the series with Monochoria vaginalis is given as 0 (Herbicidal ratio of 5% or lower (almost no effect)). Besides, the “f: beet, effect on crop grade” value in the series on beet is 0 (Herbicidal ratio of 5% or lower (almost no effect)).

As for `CCc1cc(Br)cc(C)c1C1=C(O)CC(C(C(C)=O)C(=O)OC)C1=O` (stereo not drawn) [7-001], the “Herbicidal effect grade, A: Echinochloa oryzacola Vasing.” value in series [1] and in series [2] was 0 (Herbicidal ratio of 5% or lower (almost no effect)) each time. For the same compound, the “g: rapeseed, effect on crop (criteria of Test Example 1)” value in the series on rapeseed is recorded as 0 (Herbicidal ratio of 5% or lower (almost no effect)). In addition, the “R: Veronica persica, herbicidal effect (criteria of Test Example 1)” value with Veronica persica was 0 (Herbicidal ratio of 5% or lower (almost no effect)). Also, the “I: Avena fatua, herbicidal effect (criteria of Test Example 1)” value in the series on Avena fatua is 3 (Herbicidal ratio of 40% or higher and lower than 70%). The “K: Lolium multiflorum Lam., herbicidal effect (criteria of Test Example 1)” value in the series with Lolium multiflorum Lam. is recorded as 5 (Herbicidal ratio of 90% or more (almost completely withered)). Moreover, the “c: corn, effect on crop (criteria of Test Example 1)” value with corn is 2 (Herbicidal ratio of 20% or higher and lower than 40%). For the same compound, the “Herbicidal effect grade, F: Digitaria ciliaris” value with Digitaria ciliaris is listed as 5 (Herbicidal ratio of 90% or more (almost completely withered)). Besides, the “Herbicidal effect grade, C” value with Monochoria vaginalis is listed as 0 (Herbicidal ratio of 5% or lower (almost no effect)). Further, in the series on beet, the “f: beet, effect on crop (criteria of Test Example 1)” value is given as 0 (Herbicidal ratio of 5% or lower (almost no effect)).
